In data set [1] the test system is tumor cells. The data set can be described thus: Hoechst 33342 nuclear staining (48 h read-out). The data set is classed as cell-based. A digest of the protocol: (§1)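 Adherent cells pre-spread 24 h before dosing, suspension cells dosed at seeding; compounds at 0.001 μM-10 μM final, 48 h at culture conditions. Hoechst 33342 (2-5 μg/ml) added for 30 min, then fluorescence microscopy scoring of apoptotic nuclear fraction and apoptosis-specific morphology, reported as scores A-D.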

Data set [2] in a line: Hoechst 33342 nuclear staining (48 h read-out). Format: cell-based. The procedure, abridged:
as §1

Data set [3] has as its system tumor cells. The data set can be described thus: MTS proliferation assay (72 h read-out). Format: cell-based. The procedure, abridged:
(§2)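 Tumour cells (1.5×10^3–10^4 per well) were seeded 24 h before compound addition, then exposed to 0.001–10 μM final compound for 72 h under culture conditions. MTS reagent was added for a further 3 h, absorbance was read at 492 nm, and results were binned into scores A–D.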
In general terms: Formazan colour is commonly taken as a measure of viable cells.

Data set [4] is described as follows: MTS proliferation assay (72 h read-out). The data set is classed as cell-based. The conditions noted are these: Homo sapiens, MRC5 cells. The procedure, abridged: as §2
The test system of data set [5] is tumor cells. The data set can be described thus: Mitochondrial membrane potential, JC-1 (read-out 48 h). The data set is classed as cell-based. As to conditions: JC-1, 48 h. The procedure, abridged: (§3)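 Tumor cells were treated with test compounds (adherent cells after 24 h of attachment, suspension cells immediately), medium holding up to 5% DMSO. After 48 h, JC-1 (2-5 μg/ml in added medium) was applied for 30 min. Fluorescence microscopy (FITC/TRITC filters) scored the fraction of cells with dissipated mitochondrial membrane potential as categories A-D.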

Test in data set [6]: as above
The data set is classed as cell-based. As to conditions: PBL, JC-1, 48 h. The procedure, abridged:
as §3

[7] abbreviates: Homo sapiens, HeLa cells, read-out: Hoechst 33342 nuclear staining EC50, HeLa.
The mark [8] stands for this setting: Homo sapiens, Jurkat cells, read-out: Hoechst 33342 nuclear staining EC50, Jurkat.
Where [9] appears, read: Jily cells, read-out: Hoechst 33342 nuclear staining EC50, Jily.
Setting [10] is: Homo sapiens, MRC5 cells, read-out: Hoechst 33342 nuclear staining EC50, MRC5.
[11] abbreviates: PBL, read-out: Hoechst 33342 nuclear staining EC50, PBL.
[12] abbreviates: Homo sapiens, HT-1080, HT1080 cells, read-out: MTS proliferation assay IC50, HT1080.
Setting [13] is: Homo sapiens, HeLa cells, read-out: MTS proliferation assay IC50, HeLa.
Setting [14] is: Homo sapiens, Jurkat cells, read-out: MTS proliferation assay IC50, Jurkat.
Where [15] appears, read: Jily cells, read-out: MTS proliferation assay IC50, Jily.
Where [16] appears, read: Homo sapiens, HeLa cells, read-out: Mitochondrial membrane potential (read-out 48 h) HeLa.
[17] abbreviates: Homo sapiens, Jurkat cells, read-out: Mitochondrial membrane potential (read-out 48 h) Jurkat.
Setting [18] is: Homo sapiens, MCF7 cells, read-out: Mitochondrial membrane potential (read-out 48 h) MCF7.
[19] abbreviates: Jily cells, read-out: Mitochondrial membrane potential (read-out 48 h) Jily.

pEC50, pIC50: −log10 of the molar value. Read-outs that look alike come from different tables or passages of the source. A value given as a limit tells only on which side of the number the result lay.

As a reminder, the melting point is the temperature of the solid-liquid transition. The molecule `CCOc1ccccc1C(=O)c1oc2nc(C)ccc2c1N` [Example 28] came in with a melting point of 156 to 158 °C. Also, the pEC50 in the data set with tumor cells [1] (setting [7]) is 6.00 to 7.00. The pEC50 in the data set on tumor cells [1] (setting [8]) is 7.00 to 8.00. In the data set with tumor cells [1] (setting [9]), the pEC50 was 7.00 to 8.00. Moreover, in data set [2] (setting [10]), the pEC50 is less than 6.00. Moreover, the pEC50 in data set [2] (setting [11]) was less than 6.00. Further, the pIC50 with tumor cells [3] (setting [12]) is 6.00 to 7.00. Also, the pIC50 in the data set on tumor cells [3] (setting [13]) was 6.00 to 7.00. Besides, in the data set on tumor cells [3] (setting [14]), the pIC50 was 7.00 to 8.00. Also, in the data set with tumor cells [3] (setting [15]), the pIC50 was 7.00 to 8.00. The pIC50 in data set [4] was 6.00 to 7.00. In addition, the pEC50 in the data set with tumor cells [5] (setting [16]) was 6.00 to 7.00. Also, the pEC50 in the data set on tumor cells [5] (setting [17]) is 7.00 to 8.00. For the same molecule, in the data set on tumor cells [5] (setting [18]), the pEC50 is less than 6.00. Further, the pEC50 in the data set with tumor cells [5] (setting [19]) was 6.00 to 7.00. Further, the pEC50 in data set [6] is less than 6.00.
Take `CCOc1ccccc1C(=O)c1oc2cnc(C)cc2c1N` [Example 30]: the melting point amounted to 168 °C. Further, the pEC50 with tumor cells [1] (setting [7]) is 6.00 to 7.00. Further, the pEC50 with tumor cells [1] (setting [8]) is 6.00 to 7.00. In addition, the pEC50 in the data set on tumor cells [1] (setting [9]) is 6.00 to 7.00. Besides, the pEC50 in data set [2] (setting [10]) is less than 6.00. Moreover, in data set [2] (setting [11]), the pEC50 was less than 6.00. Besides, the pIC50 with tumor cells [3] (setting [12]) was 6.00 to 7.00. In the data set on tumor cells [3] (setting [13]), the pIC50 is 6.00 to 7.00. Moreover, in the data set with tumor cells [3] (setting [14]), the pIC50 is 6.00 to 7.00. Besides, in the data set on tumor cells [3] (setting [15]), the pIC50 is 6.00 to 7.00. Further, the pIC50 in data set [4] is less than 6.00. In addition, the pEC50 in the data set with tumor cells [5] (setting [16]) was 6.00 to 7.00. In addition, the pEC50 with tumor cells [5] (setting [17]) is 6.00 to 7.00. In addition, in the data set with tumor cells [5] (setting [18]), the pEC50 is less than 6.00. In the data set on tumor cells [5] (setting [19]), the pEC50 is 6.00 to 7.00. Also, the pEC50 in data set [6] was less than 6.00.
With `CCOc1ccc(F)cc1C(=O)c1oc2cnc(C)cc2c1N` [Example 31], the melting point is 162 °C. The pEC50 in the data set with tumor cells [1] (setting [7]) is 7.00 to 8.00. In addition, in the data set on tumor cells [1] (setting [8]), the pEC50 is 7.00 to 8.00. Moreover, the pEC50 in the data set on tumor cells [1] (setting [9]) is 7.00 to 8.00. The pEC50 in data set [2] (setting [10]) was 6.00 to 7.00. Besides, the pEC50 in data set [2] (setting [11]) is less than 6.00. For the same molecule, the pIC50 with tumor cells [3] (setting [12]) was 7.00 to 8.00. Besides, the pIC50 in the data set with tumor cells [3] (setting [13]) is 7.00 to 8.00. Further, the pIC50 in the data set with tumor cells [3] (setting [14]) is 7.00 to 8.00. Moreover, in the data set with tumor cells [3] (setting [15]), the pIC50 was 7.00 to 8.00. The pIC50 in data set [4] is 7.00 to 8.00. For the same molecule, the pEC50 with tumor cells [5] (setting [16]) was 6.00 to 7.00. Also, the pEC50 in the data set on tumor cells [5] (setting [17]) was 7.00 to 8.00. Moreover, in the data set with tumor cells [5] (setting [18]), the pEC50 was less than 6.00. Further, the pEC50 in the data set on tumor cells [5] (setting [19]) is 7.00 to 8.00. Moreover, the pEC50 in data set [6] was less than 6.00.
The molecule `CCOc1ccccc1C(=O)c1sc2ncccc2c1N` [Example 114] displayed a melting point of 138 to 142 °C. The pEC50 in the data set with tumor cells [1] (setting [7]) was less than 6.00. The pEC50 in the data set with tumor cells [1] (setting [8]) was less than 6.00. The pEC50 with tumor cells [1] (setting [9]) was less than 6.00. For the same molecule, the pEC50 in data set [2] (setting [10]) is less than 6.00. Moreover, in data set [2] (setting [11]), the pEC50 was less than 6.00. Also, in the data set on tumor cells [3] (setting [12]), the pIC50 was less than 6.00. The pIC50 in the data set with tumor cells [3] (setting [13]) was less than 6.00. Besides, the pIC50 in the data set on tumor cells [3] (setting [14]) was less than 6.00. Further, the pIC50 with tumor cells [3] (setting [15]) is less than 6.00. Moreover, the pIC50 in data set [4] is less than 6.00. The pEC50 with tumor cells [5] (setting [16]) was less than 6.00. In addition, the pEC50 with tumor cells [5] (setting [17]) was less than 6.00. In addition, in the data set on tumor cells [5] (setting [18]), the pEC50 is less than 6.00. Besides, the pEC50 in the data set with tumor cells [5] (setting [19]) was less than 6.00. Besides, in data set [6], the pEC50 was less than 6.00.
`CCOc1ccc(F)cc1C(=O)c1sc2ncc([N+](=O)[O-])cc2c1N` [Example 115] gave a melting point of 205 °C. Further, the pEC50 in the data set with tumor cells [1] (setting [7]) is less than 6.00. Also, the pEC50 in the data set on tumor cells [1] (setting [8]) was less than 6.00. In addition, the pEC50 with tumor cells [1] (setting [9]) is less than 6.00. In data set [2] (setting [10]), the pEC50 is less than 6.00. Also, the pEC50 in data set [2] (setting [11]) was less than 6.00. In addition, the pIC50 with tumor cells [3] (setting [12]) is less than 6.00. In the data set on tumor cells [3] (setting [13]), the pIC50 was less than 6.00. Also, the pIC50 in the data set with tumor cells [3] (setting [14]) is less than 6.00. In addition, the pIC50 with tumor cells [3] (setting [15]) was less than 6.00. Further, the pIC50 in data set [4] was less than 6.00. Also, in the data set with tumor cells [5] (setting [16]), the pEC50 was less than 6.00. Further, in the data set with tumor cells [5] (setting [17]), the pEC50 is less than 6.00. Also, the pEC50 with tumor cells [5] (setting [18]) is less than 6.00. In the data set on tumor cells [5] (setting [19]), the pEC50 is less than 6.00. Besides, the pEC50 in data set [6] was less than 6.00.

The values above are taken from patent publication US8486996B2, “Aroylfuranes and aroylthiophenes” (Basilea Pharmaceutica AG, priority 2006, dated 2013).
